Data as given in patent US9974782B2, “Phosphodiesterase inhibitors and uses thereof” (THE TRUSTEES OF COLUMBIA UNIVERSITY IN THE CITY OF NEW YORK, priority 2008, dated 2018).
Several values for one entry are separate records, joined by “and”; a condition that tells them apart may be missing. Equal values may be shown once. Entries after “also recorded” stand apart in the source; their conditions may differ. Read-outs that look alike come from different tables or passages of the source.

Assays:
[1] = tested on: hippocampal slices treated with Aβ42; experiment: LTP in hippocampal slices treated with 200 nM oligomeric Aβ42; assay type: cell-based, mouse; conditions: YF012403 50 nM for 10 min prior to the θ-burst
Method: Following cutting hippocampal slices were transferred to a recording chamber where they were maintained at 29° C. and perfused with artificial cerebrospinal fluid (ACSF) continuously bubbled with 95% O2 and 5% CO2. The ACSF composition in mM was: 124.0 NaCl, 4.4 KCl, 1.0 Na2HPO4, 25.0 NaHCO3, 2.0 CaCl2, 2.0 MgSO4, 10.0 glucose. CA1 fEPSPs were recorded by placing both the stimulating and the recording electrodes in CA1 stratum radiatum. BST was assayed either by plotting the stimulus voltages against slopes of fEPSP, or by plotting the peak amplitude of the fiber volley against the slope of the fEPSP. A 15 min baseline was recorded every min at an intensity that evokes a response ˜35% of the maximum evoked response. LTP was induced using q-burst stimulation (4 pulses at 100 Hz, with the bursts repeated at 5 Hz and each tetanus including 3 ten-burst trains separated by 15 sec). Responses were recorded for 1 hr after tetanization and measured as field-excitatory-post-synaptic potential (fEPSP) slope expressed as percentage of baseline.
In these experiments YF012403 (the cyclopropyl lead compound) was directly given to the hippocampal slices through the perfusion system for 10 min prior to the theta burst. Aβ42 was given for 20 minutes prior to the theta burst. Oligomeric Aβ42 was prepared as described previously (Stine et al., 2003). […]

[2] = mouse, in vivo, po
Method: Timeline: 24 h-7 days. In the timeline, no fatal effects were observed.
Dosage: • Single dose at 500 mg/kg, i.p. • Single dose at 1000 mg/kg, i.p. • Single dose at 2000 mg/kg, p.o.

[3] = in vivo, cited from earlier work
[4] = tested on: CREB phosphorylation; assay type: cell-based, mouse
[5] = rodents; cited from earlier work
[6] = tested on: isolated rabbit corpus cavernosum; conditions: read-out: EC50, relaxant effect; cited from earlier work
[7] = tested on: APP processing (APP, sAPPα, sAPPβ, CT83, CT99); experiment: Western blot of APP full length and fragments in brain; assay type: in vivo, mouse; set-up: concentration or dose not given beside the values
Text: Aβ originates from APP through a proteolytic process catalyzed by secretases, producing different fragments with characteristic functions^A24. APP is first cleaved by α and β secretases that generate soluble extracellular fragments, named α-APPs and β-APPs, and three forms of carboxyterminal fragments (CTFs): C83 by α-secretase cleavage, C89 and C99 by β-secretase cleavage^A25, A26. CTFs are substrates of γ-secretase generating C-terminal peptides of 57-58 residues (APP intracellular domain, AID) and Aβ fragments from CTFβ^A27. To assess whether the decrease in Aβ levels was related to changes in APP processing [see FIG. 20], western blot analyses on mice brain cortex for full length APP and its fragments was performed.
APP levels were found unchanged also in 7-10 months old transgenic mice (FIGS. 7B-7C). They have been treated with daily injections of sildenafil for 3 weeks at age of 3 months. […] Moreover, a decrease in sAPPβ in transgenic mice treated with sildenafil was observed (FIGS. 7B, 7E) showing a down-regulation of BACE activity. […] Thus, without being bound by theory, the reduction in Aβ levels by sildenafil is due to an action of the inhibitor onto α- and β-secretase activity.
Mice brains were homogenized in buffer (20 mM tris base, 1 mM EDTA, 1 mM EGTA, 250 mM sucrose) containing protease inhibitors. Part of the homogenates was ultracentrifugated at 100,000 g for 1 h and the supernatants were used to analyze the sAPPα and the sAPPβ fragments. The protein concentration in each homogenate was quantified to analyze the equal amounts of protein from each sample. Samples were loaded into the wells of a 4-12% Bis-Tris precast gel, electrophoresed and transferred according to manufacturer's protocol. After Ponceau S staining, membranes were washed and incubated in 5% non-fat milk powder in PBS for 1 h at room temperature. Then, they were incubated overnight at 4° C. with the following primary antibodies, diluted in goat serum 5% in PBS: mouse 22C11 for APP full length detection (1:4000, Sigma); mouse sAPPα and Swedish sAPPβ (1:4000 and 1:1000, IBL), rabbit AbD for CTFs (1:250, Zymed), mouse Tubulin as control (1:20.000, Sigma). After overnight incubation, membranes were washed 3 times in PBS for 30 minutes and incubated with goat anti-mouse or goat-anti-rabbit antibody, diluted in 5% non-fat milk powder in PBS (1:4000 and 1:2000). After 30 minutes washing in PBS, radiographic detection was performed after exposure to ECL (Pierce).

[8] = tested on: J20 mice; experiment: Fear conditioning and RAWM in J20 mice; assay type: in vivo, mouse
[9] = 3-month-old APP/PS1 treated with sildenafil
[10] = APP/PS1 at 7-10 months, sildenafil for 3 weeks at 3 months

| Structure (SMILES) | effect on LTP deficit in Aβ42-treated slices in words [1] | safe dose in acute toxicity test [2] | ability to cross the BBB in words [3] | ability to cross the BBB in words ([3]; listed as Sildenafil) | phospho-CREB immunofluorescence after tetanus, % of control [4] | in vivo half-life [5] [min] | EC50 [6] [nM] | APP full length, % of control [7, 9] [%] | CT83, % of control [7, 9] [%] | CT99, % of control [7, 9] [%] | sAPPα, % of control [7, 9] [%] | sAPPβ, % of control [7, 9] [%] | APP full length, % of control [7, 10] [%] | CT83, % of control [7, 10] [%] | CT99, % of control [7, 10] [%] | sAPPα, % of control [7, 10] [%] | sAPPβ, % of control [7, 10] [%] | effect on contextual learning in words ([8]; 3 mg/kg i.p. immediately after training) | effect on spatial working memory in words ([8]; daily injection after training for 3 weeks) |
| --- | --- | --- | --- | --- | --- | --- | --- | --- | --- | --- | --- | --- | --- | --- | --- | --- | --- | --- | --- |
| COc1ccc(CNc2c(CO)cnc3c(C4CC4)cc(C#N)cc23)cc1Cl [YF012403, 4-(3-chloro-4-methoxybenzylamino)-8-cyclopropyl-3-(hydroxymethyl)-quinoline-6-carbonitrile] | ameliorates the LTP deficit; also recorded: ameliorated; also recorded: reverses LTP impairment | up to 2 g/kg | – | – | – | – | – | – | – | – | – | – | – | – | – | – | – | – | – |
| CCCc1nn(C)c2c(=O)[nH]c(-c3cc(S(=O)(=O)N4CCN(C)CC4)ccc3OCC)nc12 [sildenafil, 5-[2-ethoxy-5-(4-methyl-1-piperazinylsulphonyl)phenyl]-1-methyl-3-n-propyl-1,6-dihydro-7H-pyrazolo[4,3-d]pyrimidin-7-one] | – | – | reported to cross the blood brain barrier; also recorded: reported to cross the BBB | reported to cross the BBB | 162.58±17.09% and 163.54±13.52% and 163.6±15.14% and 151.73±12.24% | 24 | 8.7 | 125.75±4.44 | 74.5±6.73 | 95.25±5.66 | 86.25±5.02 | 43.25±3.90 | 107.4±3.88 | 82.75±6.78 | 87.2±7.63 | 153.65±11.95 | 25.6±2.83 | improved contextual learning | improved spatial working memory |
